Data reported in patent US7612079B2, “2,6,9-substituted purine derivatives and their use in the treatment of proliferative disorders” (Cyclacel Limited, priority 2001, dated 2009).
Values joined by “and” are separate entries in the source; they are usually repeats but may differ in a detail not shown here. Equal entries are not always repeated.

Assays:
[1] = tested on: seven different human tumour cell lines: A2780, A278CisF, CH1, CH1DoxR, HCT116, HT29 and KM12; assay: 72-h MTT proliferation assay, average over seven cell lines; format: cell-based; settings: read-out: IC50 Cell line Average
Excerpt: Selected compounds from the above examples were subjected to a standard cellular proliferation assay using seven different human tumour cell lines: A2780, A278CisF, CH1, CH1DoxR, HCT116, HT29 and KM12.

A2780 CisR = assay: 72-h MTT proliferation assay, A2780 CisR; format: cell-based; settings: Homo sapiens, A2780cisR, read-out: IC50 Cell line A2780 CisR
Excerpt: (§1) Selected compounds from the above examples were subjected to a standard cellular proliferation assay using seven different human tumour cell lines: A2780, A278CisF, CH1, CH1DoxR, HCT116, HT29 and KM12. […] Human tumour cell lines were obtained from the ATCC (American Type Culture Collection, 10801 University Boulevard, Manessas, Va. 20110-2209, USA). The results are shown in Table 1, together with the average IC50 over the seven different cell lines.

CH1 = assay: 72-h MTT proliferation assay, CH1; format: cell-based; settings: Homo sapiens, read-out: IC50 Cell line CH1
Excerpt: as §1

KM12 = assay: 72-h MTT proliferation assay, KM12; format: cell-based; settings: Homo sapiens, read-out: IC50 Cell line KM12
Excerpt: as §1

CH1DoxR = assay: 72-h MTT proliferation assay, CH1DoxR; format: cell-based; settings: Homo sapiens, read-out: IC50 Cell line CH1DoxR
Excerpt: as §1

HT29 = assay: 72-h MTT proliferation assay, HT29; format: cell-based; settings: Homo sapiens, HT-29, read-out: IC50 Cell line HT29
Excerpt: as §1

A2780 = assay: 72-h MTT proliferation assay, A2780; format: cell-based; settings: Homo sapiens, read-out: IC50 Cell line A2780
Excerpt: as §1

[2] = Metabolic carbinol-carboxyl oxidation; settings: remark in Table 1
HCT116 = assay: 72-h MTT proliferation assay, HCT116; format: cell-based; settings: Homo sapiens, HCT-116, read-out: IC50 Cell line HCT116
Excerpt: as §1

CDK4/cyclin D1 = CDK4/cyclin D1 (Homo sapiens, UniProt P11802); assay: CDK4/cyclin D1 kinase assay (GST-Rb phosphorylation); format: biochemical; settings: Table 2; read-out: Kinase inhibition CDK4/cyclin D1 IC50
Description: (§2) Assays for CDK2/cyclin E kinase, CDK1/cyclin B and CDK4/cyclin D1 may be carried out by monitoring phosphorylation of GST-Rb in an appropriate system. […] The phosphorylation reaction mixture (total volume 40 μl) consisted of 50 mM HEPES pH 7.4, 20 mM MgCl2, 5 mM EGTA, 2 mM DTT, 20 mM β-glycerophosphate, 2 mM NaF, 1 mM Na3VO4, Protease Inhibitors Cocktail (Sigma, see above), BSA 0.5 mg/ml, 1 μg purified enzyme complex, 10 μl of GST-Rb-Sepharose-beads, 100 μM ATP, 0.2 μCi ^32P-ATP. The reaction is carried out for 30 min at 30° C. at constant shaking. At the end of this period 100 μl of 50 mM HEPES, pH 7.4 and 1 mM ATP is added to each well and the total volume transferred onto GFC filtered plate. The plate is washed 5 times with 200 μl of 50 mM HEPES, pH 7.4 and 1 mM ATP. To each well was added 50 μl scintillant liquid and the radioactivity of the samples is measured on Scintilation counter (Topcount, HP). The IC50 values of different peptides were calculated using GraFit software.

[3] = molecular target: T1, cyclic AMP-dependent kinase (PKA) catalytic subunit (Homo sapiens, UniProt P17612); assay: PKA kinase assay (Kemptide phosphorylation); format: biochemical; settings: Table 2; read-out: Kinase inhibition PKA IC50
T1 construct: purchased Calbiochem 539487
Description: The reaction mixture (total volume 50 μl) consisted of 20 mM MOPS, pH 7.2, 25 mM β-glycerophosphate, 5 mM EGTA, 1 mM DTT, 1 mM Na3VO4, 10 mM MgCl2, 100 μM ATP, 0.2 μCi [γ-^32P]-ATP.

CDK7/cyclin H = CDK7/cyclin H (Homo sapiens, UniProt P50613); assay: CDK7/cyclin H kinase inhibition; format: biochemical; settings: Table 2
A549, HT29, Saos-2 = assay: In vitro anti-proliferative activity, 72-h MTT, A549, HT29, Saos-2; format: cell-based; settings: read-out: In vitro anti-proliferative activity (72-h MTT IC50), Cell lines: A549, HT29, Saos-2
mouse ERK-2 = molecular target: T2, mouse ERK-2 (Mus musculus, UniProt P63085); assay: ERK-2 kinase assay (MBP phosphorylation); format: biochemical; settings: Table 2; read-out: Kinase inhibition ERK2 IC50
T2 construct: purchased Upstate Biotechnologies
Description: ERK-2 kinase activity was measured by the incorporation of radioactive phosphate into myelin basic protein (MBP), catalysed by purified mouse ERK-2 (Upstate Biotechnologies). The reaction mixture (total volume 50 μL) consisted of 20 mM MOPS, pH 7.0,25 mM β-glycerophosphate, 5 mM EGTA, 1 mM DTT, 1 mM Na3VO4, 10 mM MgCl2, 100 μM ATP, 0.2 μCi [γ-^32P]-ATP.

CDK2/cyclin E = molecular target: T3, CDK2/cyclin E (Homo sapiens, UniProt P24941); assay: CDK2/cyclin E kinase assay (GST-Rb phosphorylation); format: biochemical; settings: Table 1
T3 construct: His; made in house; host or cells: Sf9 insect cells (baculovirus)
Description: as §2
For use in said assay CDK2 may be obtained from available sources or produced by recombinant methods as described His-tagged CDK2/Cyclin E and CDK1/Cyclin B may be co-expressed in Sf 9 insect cells infected with the appropriate baculovirus constructs. The cells are harvested two days after infection by low speed centrifugation and the proteins purified from the insect cell pellets by Metal-chelate chromatography. Briefly, the insect cell pellet is lysed in Buffer A (10 mM Tris-HCl, pH 8.0, 150 mM NaCl, 0.02% NP40 and 5 mM, β-marcaptoethanol, 1 mM NaF. 1 mM Na3VO4 and Protease Inhibitors Coctail (Sigma) containing AEBSF, pepstatin A, E 64, bestatin, leupeptin) by sonication. The soluble fraction is cleared by centrifugation and loaded onto Ni-NTA-Agarose (Quiagen). Non bound proteins were washed off with 300 mM NaCl, 5-15 mM Imidazole in Buffer A and the bound proteins eluted with 250 mM Imidazole in Buffer A. The purified proteins are extensively dialyzed against Storage buffer (20 mM HEPES pH 7.4, 50 mM NaCl, 2 mM DTT, 1 mM EDTA, 1 mM EGTA, 0.02% NP40, 10% v/v Glycerol) aliquoted and stored at −70° C. PKC-α—6×His may be purified the same way but using different buffers—50 mM NaH2PO4, pH 8.0 and 0.05% Triton X-100 instead of Tris and NP40 respectively.

in vivo = settings: mouse

Sequence of CDK7/cyclin H (P50613 whole entry, species assumed): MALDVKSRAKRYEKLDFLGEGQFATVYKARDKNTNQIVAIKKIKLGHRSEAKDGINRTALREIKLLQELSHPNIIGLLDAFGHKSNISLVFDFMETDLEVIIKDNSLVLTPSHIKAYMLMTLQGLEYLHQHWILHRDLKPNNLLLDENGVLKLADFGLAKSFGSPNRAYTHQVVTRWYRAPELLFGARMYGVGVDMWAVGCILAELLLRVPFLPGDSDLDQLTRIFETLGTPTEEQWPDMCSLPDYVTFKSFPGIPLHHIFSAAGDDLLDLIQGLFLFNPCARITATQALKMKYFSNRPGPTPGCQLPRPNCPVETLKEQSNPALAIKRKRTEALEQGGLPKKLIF
Sequence of CDK7/cyclin H (P51946 whole entry partner, species assumed): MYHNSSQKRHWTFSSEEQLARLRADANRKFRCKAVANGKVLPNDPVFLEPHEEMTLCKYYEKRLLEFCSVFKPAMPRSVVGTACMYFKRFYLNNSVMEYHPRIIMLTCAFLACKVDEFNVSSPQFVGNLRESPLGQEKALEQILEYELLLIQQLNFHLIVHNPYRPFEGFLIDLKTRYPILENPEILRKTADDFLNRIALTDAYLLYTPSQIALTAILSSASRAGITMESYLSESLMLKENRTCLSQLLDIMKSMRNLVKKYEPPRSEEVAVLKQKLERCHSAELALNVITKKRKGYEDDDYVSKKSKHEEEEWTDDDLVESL
T2 sequence (P63085 whole entry): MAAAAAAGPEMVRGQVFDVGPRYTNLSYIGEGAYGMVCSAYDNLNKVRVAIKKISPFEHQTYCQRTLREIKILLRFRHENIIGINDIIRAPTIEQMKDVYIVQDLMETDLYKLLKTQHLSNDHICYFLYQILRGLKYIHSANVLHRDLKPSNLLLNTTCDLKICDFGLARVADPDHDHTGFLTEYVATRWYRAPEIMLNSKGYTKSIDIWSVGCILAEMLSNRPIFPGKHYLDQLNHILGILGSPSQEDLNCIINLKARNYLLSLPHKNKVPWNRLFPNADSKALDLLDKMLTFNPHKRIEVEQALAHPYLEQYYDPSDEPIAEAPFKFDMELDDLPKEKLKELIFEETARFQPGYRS
Sequence of CDK4/cyclin D1 (P11802 whole entry, species assumed): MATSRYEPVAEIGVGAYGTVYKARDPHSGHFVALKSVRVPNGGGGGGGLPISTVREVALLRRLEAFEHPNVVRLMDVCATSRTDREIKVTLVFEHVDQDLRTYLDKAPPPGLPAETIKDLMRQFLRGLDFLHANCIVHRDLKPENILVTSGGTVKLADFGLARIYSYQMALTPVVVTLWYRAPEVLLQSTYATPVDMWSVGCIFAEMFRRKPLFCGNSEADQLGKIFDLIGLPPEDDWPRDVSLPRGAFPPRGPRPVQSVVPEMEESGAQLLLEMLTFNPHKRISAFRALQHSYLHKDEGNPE
Sequence of CDK4/cyclin D1 (P24385 whole entry partner, species assumed): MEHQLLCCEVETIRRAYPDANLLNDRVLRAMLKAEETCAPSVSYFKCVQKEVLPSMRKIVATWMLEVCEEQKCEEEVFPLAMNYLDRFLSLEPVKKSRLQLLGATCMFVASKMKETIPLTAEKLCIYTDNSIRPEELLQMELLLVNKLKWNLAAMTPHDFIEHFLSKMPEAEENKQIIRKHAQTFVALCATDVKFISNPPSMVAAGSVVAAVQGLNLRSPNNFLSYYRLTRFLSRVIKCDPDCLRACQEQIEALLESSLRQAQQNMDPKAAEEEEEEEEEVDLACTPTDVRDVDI

IC50 [1] [µM] | IC50 (A2780 CisR) [µM] | IC50 (HT29) [µM] | IC50 (A2780) [µM] | PK remark: carbinol metabolism [2] | IC50 (HCT116) [µM] | IC50 (CDK4/cyclin D1) [µM] | IC50 [3] [µM] | IC50 (CDK7/cyclin H) [µM] | IC50 (A549, HT29, Saos-2) [µM] | IC50 (mouse ERK-2) | IC50 (CDK2/cyclin E) [µM] | AUC(0-inf) (in vivo) [µg·h/mL] | half-life (in vivo) [h] | SMILES | IC50 (CH1) [µM] | IC50 (KM12) [µM] | IC50 (CH1DoxR) [µM]
13.8 | 15 | 15 | 6.6 | Blocked carbinol metabolism | 12 |  |  |  |  |  |  |  |  | CC[C@@H](Nc1nc(NCc2ccccc2)c2ncn(C(C)C)c2n1)C(C)O (mixture of isomers) [7 (2RS,3R), (2RS, 3R)-3-(6-Benzylamino-9-isopropyl-9H-purin-2-ylamino)-pentan-2-ol] | 17 | 19 | 12
 |  |  |  |  |  | 34 | 139 | 1.2 | 11 | 103 µM |  |  |  | CCC(O)[C@@H](CC)Nc1nc(NCc2ccccc2)c2ncn(C(C)C)c2n1 (mixture of isomers) [Example 9, (3RS,4R)-4-(6-Benzylamino-9-isopropyl-9H-purin-2-ylamino)-hexan-3-ol] |  |  | 
 |  |  |  |  |  | 28 | 92 | 4.4 | 11 | > 200 µM |  |  |  | CC[C@@H](Nc1nc(NCc2ccccc2)c2ncn(C(C)C)c2n1)C(O)C(C)C (mixture of isomers) [Example 11, (3RS,4R)-4-(6-Benzylamino-9-isopropyl-9H-purin-2-ylamino)-2-methyl-hexan-3-ol] |  |  | 
 |  |  |  |  |  | > 200 | 87 | 3.7 | 18 | > 200 µM |  |  |  | CC[C@@H](Nc1nc(NCc2ccccc2)c2ncn(C(C)C)c2n1)C(O)C(C)(C)C (mixture of isomers) [Example 13, (3RS,4R)-4-(6-Benzylamino-9-isopropyl-9H-purin-2-ylamino)-2,2-dimethyl-hexan-3-ol] |  |  | 
 |  |  |  |  |  | 60 | > 200 | 4.3 | 22 | > 200 µM |  |  |  | CC[C@H](Nc1nc(NCc2ccccc2)c2ncn(C(C)C)c2n1)C(O)C(C)(C)C (mixture of isomers) [Example 14, (3RS,4S)-4-(6-Benzylamino-9-isopropyl-9H-purin-2-ylamino)-2,2-dimethyl-hexan-3-ol] |  |  | 
2 | 1.1 | 1.8 | 2.2 |  | 5.7 |  |  |  |  |  | 0.58 ± 0.33 | 62.5 | 5.5 | OC1CCCN(c2nc(Nc3ccc4c(c3)CCC4)c3ncn(C4CCCC4)c3n2)C1 (stereo not drawn) [Example 1, 1-[9-Cyclopentyl-6-(indan-5-ylamino)-9H-purin-2-yl]-piperidin-3-ol] | 1.5 | 0.34 | 1.7
4.9 | 14 | 4.4 | 0.078 |  | 6.1 |  |  |  |  |  | 1.84 ± 0.31 | 19.5 | 4.2 | COc1ccc(CNc2nc(N3CCCC(O)C3)nc3c2ncn3C2CCCC2)cc1OC (stereo not drawn) [Example 2, 1-[9-Cyclopentyl-6-(3.4-dimethoxy-benzylamino)-9H-purin-2-yl]piperidin-3-ol] | 0.94 | 6.4 | 2.4
2.3 | 2.85 | 4.3 | 1.1 |  | 2.45 |  |  |  |  |  | 0.33 ± 0.45 |  |  | CC(C)[C@H](CO)Nc1nc(Nc2cccc([N+](=O)[O-])c2)c2ncn(C(C)C)c2n1 [Example 3, (R)-2-[9-Isopropyl-6-(3-nitro-phenylamino)-9H-purin-2-ylamino]-3-methyl-butan-1-ol] | 2.3 | 1.05 | 1.8
1.1 | 1.7 | 2.1 | 0.245 |  | 1.2 |  |  |  |  |  | 0.028 ± 0.01 |  |  | CC[C@H](CO)Nc1nc(Nc2cccc([N+](=O)[O-])c2)c2ncn(C(C)C)c2n1 [Example 4, (R)-2-[9-Isopropyl-6-(3-nitro-phenlamino)-9H-purin-2-ylamino]-butan-1-ol] | 1.1 | 0.76 | 0.56
 | 3.4 | 5 | 3.3 | Blocked carbinol metabolism | 1.5 |  |  |  |  |  |  |  |  | CC[C@H](Nc1nc(NCc2ccccc2)c2ncn(C(C)C)c2n1)[C@@H](C)O [Example 7 (2R,3S), (2R,3S)-3-(6-Benylamino-9-isopropyl-9H-purin-2-ylamino)-pentan-2-ol] | 1.8 | 1.9 | 1.3
6.9 | 3.8 |  | 6.4 | Blocked carbinol metabolism | 5.4 |  |  |  |  |  |  |  |  | CC[C@@H](Nc1nc(NCc2ccccc2)c2ncn(C(C)C)c2n1)[C@H](C)O [Example 7 (2S,3R), (2S, 3R)-3-(6-Benzylamino-9-isopropyl-9H-purin-2-ylamino)-pentan-2-ol] | 5 | 5.4 | 4.6
 |  |  |  |  |  |  | > 50 |  |  | > 50 µM and 43 µM and 29 µM |  |  |  | CCC(Nc1nc(NCc2ccccc2)c2ncn(C(C)C)c2n1)C(C)O (stereo not drawn) [Example 7] |  |  | 
 |  |  |  |  |  |  | > 200 |  | 20 |  |  |  |  | CCC(O)[C@H](CC)Nc1nc(NCc2ccccc2)c2ncn(C(C)C)c2n1 (stereo partly drawn) [Example 10] |  |  | 
 |  |  |  |  |  |  | 83 |  |  | 88 µM |  |  |  | CC[C@H](Nc1nc(NCc2ccccc2)c2ncn(C(C)C)c2n1)C(O)C(C)C (stereo partly drawn) [Example 12] |  |  | 
 |  |  |  |  |  | 12 | 191 | 3.7 | 15 |  |  |  |  | CC[C@@H](Nc1nc(NCc2ccccc2)c2ncn(C(C)C)c2n1)C(C)(C)O [Example 15] |  |  | 
 |  |  |  |  |  | 8.5 | ≥ 200 | 2 | 10 |  |  |  |  | CC[C@H](Nc1nc(NCc2ccccc2)c2ncn(C(C)C)c2n1)C(C)(C)O [Example 16, (S)-3-(6-Benzylamino-9-isopropyl-9H-purin-2-ylamino)-2 methyl-pentan-2-ol] |  |  | 
